What is called Kd is the equilibrium constant for the complex coming apart. Read a low Kd as a tighter complex.

The structures appear in SMILES notation. Residue numbers refer to the chain shown, from its start. Where two headings read alike, the source gives them in different places.

Experiment [1] concerns the target T1, Rad51 (Saccharomyces cerevisiae, UniProt P25454, K191A).
T1 sequence (P25454 1-400 K191A): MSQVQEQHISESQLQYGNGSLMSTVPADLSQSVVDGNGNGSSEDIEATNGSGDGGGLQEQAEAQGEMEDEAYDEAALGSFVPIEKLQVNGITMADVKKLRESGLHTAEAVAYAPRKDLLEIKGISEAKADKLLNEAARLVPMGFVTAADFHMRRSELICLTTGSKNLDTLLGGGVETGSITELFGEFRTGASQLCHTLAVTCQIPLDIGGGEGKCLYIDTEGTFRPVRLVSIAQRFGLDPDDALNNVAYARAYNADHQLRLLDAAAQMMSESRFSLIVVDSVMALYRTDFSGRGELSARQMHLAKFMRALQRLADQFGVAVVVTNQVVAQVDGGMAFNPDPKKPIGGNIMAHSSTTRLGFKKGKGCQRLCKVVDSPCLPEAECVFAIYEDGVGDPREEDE
The experiment can be described thus: biochemical.

Experiment [2] has as its target T2, Rad51 (Saccharomyces cerevisiae, UniProt P25454, K191R).
T2 sequence (P25454 1-400 K191R): T1 sequence (P25454 1-400 K191A) with A191R
The experiment can be described thus: biochemical.

The target in experiment [3] is T3, Rad51 (Saccharomyces cerevisiae, UniProt P25454).
T3 sequence (P25454 1-400): T1 sequence (P25454 1-400 K191A) with A191K
The experiment can be described thus: biochemical.

The target of experiment [4] is T3, Rad51. It counts as binding.
Experiment [5] has as its target T2, Rad51. Type of experiment: binding.
Experiment [6] deals with T1, Rad51. It counts as binding.

Take `Nc1ncnc2c1ncn2[C@@H]1O[C@H](COP(=O)(O)OP(=O)(O)OP(=O)(O)O)[C@@H](O)[C@H]1O` [ATP]: the Kd turned out to be 34.2 ± 25.8 µM on Rad51 [1], 52.5 ± 18.2 µM at Rad51 [2] and 8.8 ± 4.5 µM at Rad51 [3].

`[N-]=[N+]=Nc1nc2c(N)ncnc2n1[C@@H]1O[C@H](COP(=O)(O)OP(=O)(O)OP(=O)(O)O)[C@@H](O)[C@H]1O` [8-Azido-ATP]: the Kd at Rad51 [4] was 10.2 ± 5.1 µM; at Rad51 [5] it was 26.9 ± 10.3 µM; on Rad51 [6] it was 73.7 ± 35.6 µM.

Source of the values: paper PMC1919488 (Nucleic Acids Research, 2007).
